Results reported in publication PMC10097024, “Cytotoxic and Antibacterial Prenylated Acylphloroglucinols from Hypericum olympicum L” (Plants, 2023).
Where “and” joins values, the source holds several entries; their conditions need not be identical. Equal values may be shown once. Read-outs that look alike come from different tables or passages of the source.

Key:
SKW-3 = tested on: SKW-3; parameters: method as in PMID 26411018; settings: human leukemia cell line SKW-3, dissolved in DMSO; cited from earlier work
[1] = tested on: Enterococcus faecalis (ATCC 29212); experiment: MIC by broth microdilution; assay type: cell-based
Source text: (§1) The Gram-positive bacterial strains that were examined for susceptibility were: Staphylococcus aureus (ATCC 29213, American Type Cell Culture Collection, Manassas, VA, USA), Staphylococcus aureus—MRSA (NBIMCC 8327-resistant to methicillin and oxacillin, National Bulgarian Collection for Industrial Microorganisms and Cell Cultures, Sofia, Bulgaria), Enterococcus faecalis (ATCC 29212) and Streptococcus pyogenes (SAIMC 10535, Collection of the Stephan Angeloff Institute of Microbiology, Sofia, Bulgaria). The only Gram-negative bacterial strain used was Escherichia coli (ATCC 35218). Bacteria were maintained in Trypticase Soy Broth (TSB, Himedia, India) at 37 °C, aerobic conditions. For the experiments brain heart infusion (BHI) broth (#M210 HiMedia, Mumbai, India) was used for E. faecalis and S. pyogenes and Mueller Hinton broth (MHB, #M0405B) from Thermo Scientific-Oxoid (Basingstoke, UK)—for all other strains.
(§2) BMD was performed according to the following protocol of ISO 20776/1-2006 [117]. A bacterial suspension with density of 10^8 CFU/mL (0.5 McFarland standard, OD600) was prepared from an overnight grown liquid bacterial culture homogenized over vortex and brought to a working bacterial suspension (WBS) with concentration of 5×10^5 CFU/mL by being diluted 200× with MHB or BHI broth and homogenized over vortex again. Two-fold serial dilutions of compounds 3–5 was prepared in 96-well round bottom plates to a volume of 50 μL and final range of concentrations 100–0.2 μg/mL. Stock solutions were dissolved in ethanol and MHB was used as diluent and as test for absence of contamination. Three wells were left as blank samples and 6 wells were left for control samples. An equivalent volume (50 μL) of the WBS was inoculated to each well in the aforementioned plates achieve final bacterial density of […] with the exception of the blank wells. After 18–24 h incubation under aerobic standardized conditions at 37 °C the plates were examined. […] Antibiotics dissolved in sterile distilled water were used as referent positive controls. They were penicillin G (PEN, #B0500000, Merck KGaA, Darmstadt, Germany) for E. faecalis and S. pyogenes, gentamicin (GEN, #15750-037, 50 mg/mL, Gibco, Paisley, UK) for all bacteria except S. pyogenes and ciprofloxacin (CIP, Ciproflav:10 mg/mL, Polfa S.A. Warsaw Pharmaceutical Works, Starogard Gdanski, Poland) for E. faecalis. The range of concentrations were 0.004–2 mg/L for PEN, 0.008–4 mg/L for GEN and 0.005–2 mg/L for CIP. The requirements of EUCAST (European Committee on Antimicrobial Susceptibility Testing) for their MICs were followed for discussing the results. In the end the plates which contained active agents were subjected to assessment of the dehydrogenase activity of the bacteria.

[2] = tested on: Staphylococcus aureus—MRSA (NBIMCC 8327); experiment: MIC by broth microdilution; assay type: cell-based
Source text: as §1, §2

[3] = tested on: Streptococcus pyogenes (SAIMC 10535); experiment: MIC by broth microdilution; assay type: cell-based
Source text: as §1, §2

[4] = tested on: Staphylococcus aureus (ATCC 29213); experiment: MIC by broth microdilution; assay type: cell-based
Source text: as §1, §2

K-562 cells = settings: human leukemia cell line K-562, dissolved in DMSO; cited from earlier work
BV-173 = tested on: BV-173; parameters: method as in PMID 26411018; settings: human leukemia cell line BV-173, dissolved in DMSO; cited from earlier work
HL-60 = experiment: Antiproliferative test (NCI methodology); assay type: cell-based, human; settings: for TGI: HL-60, total growth inhibition; for GI50: HL-60, MTT readout
Source text: (§3) The group of human cell lines used in this study were represented by the tumor cell lines MDA-MB (breast carcinoma), EJ (urinary bladder carcinoma), K-562 (chronic myeloid leukemia), HL-60 (acute pre-myeloid leukemia), HL-60/DOX (multi-drug resistant HL-60 cell line, with over expression of MRP-1) and the non-tumorigenic cell lines HEK-293 (embryonic kidney cells) and EA.hy926 (vascular endothelial cells). EJ, HL60 and EA.hy926 were purchased from American Type Culture Collection (ATCC) (Manassas, Virginia). The other cell lines were purchased from the German Collection of Microorganisms and Cell Cultures (DSMZ GmbH, Braunschweig, Germany). HL-60/DOX cell lines were generated by periodically treating HL-60 cells with anthracyclins. The conditions in which the cell culture flasks were maintained were as follows: 37 °C in an incubator “BB 16-Function Line” Heraeus (Kendro, Hanau, Germany) with 5% CO2 humidified atmosphere. The growth medium was 90% RPMI-1640, supplemented with 10% FBS and 2 mM L-glutamine. MDA-MB-231, EJ, HEK-293 and EA.hy926 cells were maintained as adherent monolayer cultures while all the other (leukemic) cell lines were grown as suspension type cultures. Cells were maintained in log phase: the adherent cell lines were subjected to trypsinization 1–2 times a week and the leukemic cell lines were passaged 2–3 times a week by removing of part of the cellular suspension and substituting it with fresh medium.
(§4) The test was performed according the methodology of National Cancer Institute (NCI), USA [116]. Briefly, cells were seeded into 96-well plates in the same way as for an MTT test and after 24 h, the absorption of one plate of each cell line was measured as in the MTT assay described above, to represent a measurement of the cell population at the time of drug-addition (Tz). The rest of the plates were treated with the tested compounds and the experiment for them continued as the MTT-method. Using the absorbance measurements [(Tz, untreated control growth (C) and test growth in the present of the compounds (Ti)], the percentage growth is calculated at each of the tested concentrations of the compounds. Percentage growth inhibition (GI) is calculated as GI%=Ti−Tz/C−Tz×100 for concentrations for which Ti ≥ Tz. For concentrations in which Ti < Tz it is calculated as GI%=Ti−Tz/Tz×100 . Two dose parameters are calculated for each experimental agent. Growth inhibition of 50% (GI50) is calculated from Ti−Tz/C−Tz×100=50 . This is the drug concentration resulting in a 50% reduction in the net protein increase (as measured by MTT-test) in control cells during the drug incubation. The drug concentration resulting in total growth inhibition (TGI) is calculated from Ti = Tz.

K-562 = experiment: Antiproliferative test (NCI methodology); assay type: cell-based, human; settings: for GI50: K-562, MTT readout; for TGI: K-562, total growth inhibition
Source text: as §3, §4

MDA-MB-231 = experiment: Antiproliferative test (NCI methodology); assay type: cell-based, human; settings: for GI50: MDA-MB-231, MTT readout; for TGI: MDA-MB-231, total growth inhibition
Source text: as §3, §4

Compound | MIC ([1]; ATCC29212, read-out: MIC) | MIC ([2]; read-out: MIC) | MIC ([3]; read-out: MIC) | MIC [4] | MIC ([4]; read-out: MIC) | TGI (HL-60) | TGI (K-562) | TGI (MDA-MB-231) | MIC [2] | also measured
CC(C)=CCC[C@]1(C)[C@@H](CC=C(C)C)C[C@]2(C)C(=O)C(CC=C(C)C)=C(O)[C@@]1(C(=O)C(C)C)C2=O [Compound 3, hyperpolyphyllirin/hyperibine J] | 8 µg/mL and 16.6 µM | 8 µg/mL and 16.6 µM | 31 µg/mL and 64.2 µM | 2.00 mg/L | 4.14 µM | 47.43 µM | 0.77 µM | 2.96 µM | – | IC50 (SKW-3): 5.3 µM; IC50 (K-562 cells): 21.3 µM; IC50 (BV-173): 5.7 µM; GI50 (HL-60; Homo sapiens): 41.1 µM; GI50 (K-562; Homo sapiens, K562): 0.44 µM; GI50 (MDA-MB-231; Homo sapiens): 1.93 µM
CC(C)=CCC[C@]1(C)[C@@H](CC=C(C)C)C[C@H]2C(=O)[C@]1(C(=O)C(C)C)C(=O)C(CC=C(C)C)=C2O [Compound 5, (1S,5R,7S,8R)-4-hydroxy-1-isobutyryl-8-methyl-3,7-bis(3-methylbut-2-en-1-yl)-8-(4-methylpent-3-en-1-yl)bicyclo[3.3.1]non-3-ene-2,9-dione] | 4 µg/mL and 8.53 µM | 1 µg/mL and 2.14 µM | 4 µg/mL and 8.53 µM | 1.00 mg/L | 2.14 µM | – | – | – | 1.00 mg/L | MIC ([4]; ATCC29213, Staphylococcus aureus, read-out: MIC): 0.78 µg/mL to 2 µg/mL and 1.57 µM to 4.14 µM
(1R,5R,7S,8R)-4-hydroxy-5,8-dimethyl-3,7-bis(3-methylbut-2-en-1-yl)-1-(2-methylbutanoyl)-8-(4-methylpent-3-en-1-yl)bicyclo[3.3.1]non-3-ene-2,9-dione [Compound 4] | – | 25.17 µM | 25.17 µM | 0.78 mg/L | 1.57 µM | 55.55 µM | 18.38 µM | 0.81 µM | 12.5 mg/L | MIC [1]: 12.5 mg/L; MIC ([1]; read-out: MIC): 25.17 µM; MIC [3]: 12.50 mg/L; GI50 (HL-60): 41.1 µM; GI50 (K-562): 16 µM; GI50 (MDA-MB-231): 0.52 µM
